How the values were obtained:
[1] = Maillard reaction (coloration with glycine, absorbance at 480 nm); type: physicochemical; details: for Coloration degree at 480 nm: 10% saccharide, 1% glycine, 50 mM phosphate buffer pH7.0, 100° C., 90 minutes, 1 cm cuvette; for Coloration degree relative to maltooligosaccharides as material: 480 nm, with glycine
Protocol: Solutions of 10% saccharide preparation PI, PII, PIII, PIV or PV prepared in Experiment 4 and 1% glycine in 50 mM phosphate buffer (pH7.0) were incubated at 100° C. for 90 minuets, cooled and determined in 1 cm cuvette for absorbance at 480 nm. As control, maltotriose, maltotetraose, maltopentaose, maltohexaose and maltoheptaose which were used as the starting materials were treated similarly as above and determined for absorbance at 480 nm.
10% High-purity trehalose preparation, purity of 99.5%, obtained by the method in Experiment 17 and 1% glycine in 50 mM phosphate buffer (pH7.0) was incubated at 100° C. for 90 minutes, cooled and measured in lcm cuvette for absorbance at 480 nm. As control, glucose and maltose were treated similarly as above and then measured for absorbance at 480 nm.

[2] = system: pig kidney trehalase; assay: Degradation by pig kidney trehalase; type: biochemical; details: trehalose, or trehalose formed from PI-PV; pH5.7, 37° C., 18 hours for the latter
Protocol: In order to purify trehalose from respective reaction products, they were decolored, deionized, concentrated and subjected to column fractionation on a strongly-acidic cation exchange of sodium form "XT-1016", followed by recovering high-purity fractions with trehalose contents of 97% or higher. The fractions were then concentrated to about 65% and allowed to standing at 25° C. for 2 days to crystallize out crystalline trehalose hydrate which was then separated and dried in vacuo to obtain a high-purity preparation with a trehalose content of 99% or higher. The yields against respective starting substrates on dry solid basis were as follows: from glycosyl trehalose, 9.5%; from maltosyl trehalose, 14.9%; from maltotriosyl trehalose, 16.0%; from maltotetraosyl trehalose, 18.5%; and from maltopentaosyl trehalose, 17.7%. […] As evident from the above results, the saccharides formed by subjecting alpha-glycosyl trehaloses to the trehalose-releasing enzyme were identified to be trehalose.

SMILES	Coloration degree at 480 nm [1]	Coloration degree relative to maltooligosaccharides as material [1]	Degradation by pig kidney trehalase (in words) [2]
OC[C@H]1O[C@H](O[C@H]2O[C@H](CO)[C@@H](O[C@H]3O[C@H](CO)[C@@H](O[C@H]4O[C@H](CO)[C@@H](O[C@H]5O[C@H](CO)[C@@H](O)[C@H](O)[C@H]5O)[C@H](O)[C@H]4O)[C@H](O)[C@H]3O)[C@H](O)[C@H]2O)[C@H](O)[C@@H](O)[C@@H]1O [PIII, alpha-maltotriosyl trehalose]	0.012	3-6%	degradable into glucose by the trehalase
OC[C@H]1O[C@H](O[C@H]2O[C@H](CO)[C@@H](O[C@H]3O[C@H](CO)[C@@H](O[C@H]4O[C@H](CO)[C@@H](O)[C@H](O)[C@H]4O)[C@H](O)[C@H]3O)[C@H](O)[C@H]2O)[C@H](O)[C@@H](O)[C@@H]1O [PII, alpha-maltosyl trehalose]	0.018	3-6%	degradable into glucose by the trehalase
OC[C@H]1O[C@H](O[C@H]2O[C@H](CO)[C@@H](O[C@H]3O[C@H](CO)[C@@H](O)[C@H](O)[C@H]3O)[C@H](O)[C@H]2O)[C@H](O)[C@@H](O)[C@@H]1O [PI, alpha-glucosyl trehalose]	0.027	3-6%	degradable into glucose by the trehalase
OC[C@H]1O[C@H](O[C@H]2O[C@H](CO)[C@@H](O[C@H]3O[C@H](CO)[C@@H](O[C@H]4O[C@H](CO)[C@@H](O[C@H]5O[C@H](CO)[C@@H](O[C@H]6O[C@H](CO)[C@@H](O[C@H]7O[C@H](CO)[C@@H](O)[C@H](O)[C@H]7O)[C@H](O)[C@H]6O)[C@H](O)[C@H]5O)[C@H](O)[C@H]4O)[C@H](O)[C@H]3O)[C@H](O)[C@H]2O)[C@H](O)[C@@H](O)[C@@H]1O [PV, alpha-maltopentaosyl trehalose]		3-6%	degradable into glucose by the trehalase
OC[C@H]1O[C@H](O[C@H]2O[C@H](CO)[C@@H](O[C@H]3O[C@H](CO)[C@@H](O[C@H]4O[C@H](CO)[C@@H](O[C@H]5O[C@H](CO)[C@@H](O[C@H]6O[C@H](CO)[C@@H](O)[C@H](O)[C@H]6O)[C@H](O)[C@H]5O)[C@H](O)[C@H]4O)[C@H](O)[C@H]3O)[C@H](O)[C@H]2O)[C@H](O)[C@@H](O)[C@@H]1O [PIV, alpha-maltotetraosyl trehalose]		3-6%	degradable into glucose by the trehalase

Source: US5919668A, “Non-reducing saccharide and its production and use” (Kabushiki Kaisha Hayashibara Seibutsu Kagaku Kenkyujo, priority 1994, dated 1999)
